These results are taken from ChEMBL document CHEMBL1201862, “PubChem BioAssay data set” (2004).

The source made the active and inactive calls. Where only a bound is given, the exact number is not on record here.

By AC50 is commonly meant the concentration giving half of the maximal activity seen. A word on the EC50: it is the concentration at which the effect is half-maximal. For orientation: CC50 means the concentration at which the toxic effect on the cells reaches its halfway point. What is called IC50 is the midpoint of a concentration-inhibition curve.

The target of assay [1] is FAD-linked sulfhydryl oxidase ALR (Homo sapiens, UniProt P55789). Kind of assay: ALR-catalysed DTT oxidation blockers – biochemical, H2O2 detection, luminescence, cherry-pick, dose response (AID 493248).
FAD-linked sulfhydryl oxidase ALR, sequence (P55789 whole entry): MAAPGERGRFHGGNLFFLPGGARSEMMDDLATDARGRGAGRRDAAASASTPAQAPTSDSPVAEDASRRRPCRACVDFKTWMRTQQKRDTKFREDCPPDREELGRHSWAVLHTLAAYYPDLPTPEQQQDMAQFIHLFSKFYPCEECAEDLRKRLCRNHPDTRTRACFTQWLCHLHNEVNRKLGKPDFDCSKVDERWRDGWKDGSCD
Assay [2] concerns the target T1, RNA-binding protein pos-1 (Caenorhabditis elegans, UniProt G5EF15).
T1 sequence (G5EF15 whole entry): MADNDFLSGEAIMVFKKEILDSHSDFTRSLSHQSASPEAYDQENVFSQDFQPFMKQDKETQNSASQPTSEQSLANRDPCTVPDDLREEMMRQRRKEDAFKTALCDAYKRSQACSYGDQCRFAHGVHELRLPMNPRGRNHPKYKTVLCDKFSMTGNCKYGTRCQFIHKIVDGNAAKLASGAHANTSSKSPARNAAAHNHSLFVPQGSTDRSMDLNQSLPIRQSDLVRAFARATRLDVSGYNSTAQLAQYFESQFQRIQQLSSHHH
Nature of the assay: disruptors of C. elegans POS-1 RNA interaction – biochemical, fluorescence polarization, dose response (AID 1964).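 Further: purified POS-1 fused to maltose binding protein made in E. coli; potency of compounds blocking POS-1 binding to fluorescent RNA.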 For orientation: Fluorescence polarisation rises when a labelled molecule tumbles more slowly, as on binding a larger partner.

The target of assay [3] is T2, Zinc finger protein mex-5 (Caenorhabditis elegans, UniProt Q9XUB2).
T2 sequence (Q9XUB2 whole entry): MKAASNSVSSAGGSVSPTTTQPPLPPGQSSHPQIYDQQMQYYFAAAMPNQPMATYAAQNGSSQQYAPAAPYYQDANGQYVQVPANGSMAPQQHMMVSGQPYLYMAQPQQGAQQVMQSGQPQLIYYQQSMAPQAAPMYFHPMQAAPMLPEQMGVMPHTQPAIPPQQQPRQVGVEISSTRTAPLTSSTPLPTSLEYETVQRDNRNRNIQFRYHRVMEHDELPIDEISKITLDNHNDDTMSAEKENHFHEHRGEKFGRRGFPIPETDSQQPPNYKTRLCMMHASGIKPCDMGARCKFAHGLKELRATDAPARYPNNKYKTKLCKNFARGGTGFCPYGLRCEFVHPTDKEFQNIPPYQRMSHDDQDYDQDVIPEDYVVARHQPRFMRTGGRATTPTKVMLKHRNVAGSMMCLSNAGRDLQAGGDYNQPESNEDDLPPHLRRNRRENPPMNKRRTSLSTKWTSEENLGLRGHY
Kind of assay: potency of MEX-5 RNA-binding blockers – biochemical, C. elegans, fluorescence polarization, dose response (AID 1960).

Assay [4] is described as follows: Luminescence Cell-Based Dose Retest to Confirm Inhibitors of Cancer Stem Cells. [Related pubchem assays (depositor defined):AID2717, AID2721]. Conditions: Homo sapiens. In kind it is functional.
A short description of assay [5]: viability of uninfected HEp-2 cells – cell-based, HTS, cytotoxicity control for RSV inhibitor project, dose response (AID 2410). Conditions: human respiratory syncytial virus. In kind it is functional.
Assay [6] is described as follows: Trypanosoma cruzi growth suppression in host cells – NIH3T3 host cells, beta-gal luminescence, confirmation (AID 2044).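 Further: intracellular parasites grown in NIH/3T3 mouse fibroblasts as host cells; luminescent beta-galactosidase reporter signal from transgenic T. cruzi replicating inside host cells; inhibitors lower the luminescence signal.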 In kind it is functional, cell-based.
Assay [7] is described as follows: NIH3T3 cell viability loss – ATP luminescence, mouse fibroblasts, counter-screen, dose response (AID 2010).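 Further: cells exposed to compound for about 90 hours before reading.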 In kind it is functional, cell-based.
Assay [8] deals with T3, Rac GTPase-activating protein 1 (Homo sapiens, UniProt Q9H0H5).
T3 sequence (Q9H0H5 whole entry): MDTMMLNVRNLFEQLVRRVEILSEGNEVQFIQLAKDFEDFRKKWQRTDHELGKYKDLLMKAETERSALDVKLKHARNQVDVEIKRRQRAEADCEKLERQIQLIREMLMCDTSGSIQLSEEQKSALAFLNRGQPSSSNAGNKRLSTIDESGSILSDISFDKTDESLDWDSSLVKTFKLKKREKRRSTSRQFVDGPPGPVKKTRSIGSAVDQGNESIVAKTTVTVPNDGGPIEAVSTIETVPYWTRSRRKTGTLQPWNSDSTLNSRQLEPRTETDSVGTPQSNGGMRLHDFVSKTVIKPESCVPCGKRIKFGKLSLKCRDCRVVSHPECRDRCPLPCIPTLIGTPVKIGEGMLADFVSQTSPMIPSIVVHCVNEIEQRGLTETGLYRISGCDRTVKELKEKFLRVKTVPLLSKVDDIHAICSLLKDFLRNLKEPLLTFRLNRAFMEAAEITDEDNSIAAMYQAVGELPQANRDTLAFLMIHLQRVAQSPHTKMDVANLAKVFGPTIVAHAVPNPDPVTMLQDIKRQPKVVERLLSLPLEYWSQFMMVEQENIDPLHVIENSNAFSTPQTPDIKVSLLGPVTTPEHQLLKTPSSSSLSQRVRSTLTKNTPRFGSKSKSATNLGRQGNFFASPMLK
Nature of the assay: blockers of MgcRacGAP-driven Rac1 GTP hydrolysis – biochemical, ADP Hunter fluorescence, primary and confirmatory, confirmation (AID 624330). In kind it is functional.

Assay [9] relates to INS1. Kind of assay: INS-1E survival protection against cytokine death – cell-based, luminescence, retest, dose response (AID 449756).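 Further: cell death triggered by IL-1 beta plus TNF-alpha plus IFN-gamma mixture; protective hits raise ATP signal compared with cytokine alone wells.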 Conditions: Rattus norvegicus. Type of assay: functional.
In assay [10] the target is T4, Heat shock factor protein 1 (Mus musculus, UniProt P38532).
T4 sequence (P38532 whole entry): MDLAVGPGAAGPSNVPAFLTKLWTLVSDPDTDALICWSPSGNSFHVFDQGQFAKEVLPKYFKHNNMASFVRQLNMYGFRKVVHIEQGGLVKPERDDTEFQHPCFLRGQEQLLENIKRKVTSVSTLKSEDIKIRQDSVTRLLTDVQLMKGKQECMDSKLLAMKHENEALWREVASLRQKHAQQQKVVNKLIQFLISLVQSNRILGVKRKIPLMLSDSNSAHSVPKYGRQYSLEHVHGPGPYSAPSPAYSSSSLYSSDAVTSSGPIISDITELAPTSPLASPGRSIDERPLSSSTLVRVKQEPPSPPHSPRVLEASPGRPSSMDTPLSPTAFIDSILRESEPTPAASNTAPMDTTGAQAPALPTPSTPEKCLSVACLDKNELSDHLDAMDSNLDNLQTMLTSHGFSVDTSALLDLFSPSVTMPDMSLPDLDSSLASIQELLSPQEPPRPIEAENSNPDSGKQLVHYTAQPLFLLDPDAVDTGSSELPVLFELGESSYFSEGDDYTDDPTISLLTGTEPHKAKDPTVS
Nature of the assay: decrease of HSF1-responsive luciferase luminescence – cell-based, NIH3T3, dose retest, confirmation (AID 2382).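 Further: NIH3T3 fibroblasts with HSF1-driven luciferase reporter stressed by proteasome inhibitor MG132; luminescence from HSF1-driven luciferase expression after 8 hours of MG132 stress.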 Type of assay: functional.

Assay [11] has as its target Cytochrome P450 2C9 (Homo sapiens, UniProt P11712).
Assay [12] is described as follows: Luminescence Cell-Based Dose Confirmation HTS to Identify Inhibitors of Platelet Dense Granule Release. [Related pubchem assays: 1663 (Primary HTS), 1678 (Summary of Project)]. In kind it is functional.
For assay [13], the target named is Luciferin 4-monooxygenase (Photinus pyralis, UniProt P08659). Nature of the assay: inhibition of purified Photinus pyralis luciferase – biochemical, luminescence, dose response (AID 1891).
Luciferin 4-monooxygenase, sequence (P08659 whole entry): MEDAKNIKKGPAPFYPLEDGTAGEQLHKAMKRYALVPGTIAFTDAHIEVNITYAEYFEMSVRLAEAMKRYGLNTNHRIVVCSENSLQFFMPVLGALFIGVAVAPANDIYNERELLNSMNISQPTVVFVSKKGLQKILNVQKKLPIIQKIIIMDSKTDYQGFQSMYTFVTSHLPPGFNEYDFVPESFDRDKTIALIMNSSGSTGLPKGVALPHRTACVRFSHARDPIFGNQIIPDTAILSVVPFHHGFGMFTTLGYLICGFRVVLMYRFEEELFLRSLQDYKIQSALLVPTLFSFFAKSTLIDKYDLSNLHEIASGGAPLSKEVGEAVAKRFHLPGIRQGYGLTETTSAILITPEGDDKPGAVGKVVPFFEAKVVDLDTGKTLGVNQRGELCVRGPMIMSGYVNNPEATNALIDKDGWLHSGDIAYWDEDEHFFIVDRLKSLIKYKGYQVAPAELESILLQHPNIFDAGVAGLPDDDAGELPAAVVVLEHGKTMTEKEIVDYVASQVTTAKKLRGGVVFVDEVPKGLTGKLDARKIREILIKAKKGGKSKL
In assay [14] the test system is H4. Nature of the assay: Luminescence Cell-Based Dose Response HTS to Identify Activators of 5'UTR Stem-Loop Driven Prion Protein mRNA Translation in H4 Neuroglioblastoma Cells. [Related pubchem assays: 1829 (Project Summary), 1814 (Primary HTS)]. In kind it is functional. Conditions: Homo sapiens.

Cytochrome P450 2C9, sequence (P11712 whole entry): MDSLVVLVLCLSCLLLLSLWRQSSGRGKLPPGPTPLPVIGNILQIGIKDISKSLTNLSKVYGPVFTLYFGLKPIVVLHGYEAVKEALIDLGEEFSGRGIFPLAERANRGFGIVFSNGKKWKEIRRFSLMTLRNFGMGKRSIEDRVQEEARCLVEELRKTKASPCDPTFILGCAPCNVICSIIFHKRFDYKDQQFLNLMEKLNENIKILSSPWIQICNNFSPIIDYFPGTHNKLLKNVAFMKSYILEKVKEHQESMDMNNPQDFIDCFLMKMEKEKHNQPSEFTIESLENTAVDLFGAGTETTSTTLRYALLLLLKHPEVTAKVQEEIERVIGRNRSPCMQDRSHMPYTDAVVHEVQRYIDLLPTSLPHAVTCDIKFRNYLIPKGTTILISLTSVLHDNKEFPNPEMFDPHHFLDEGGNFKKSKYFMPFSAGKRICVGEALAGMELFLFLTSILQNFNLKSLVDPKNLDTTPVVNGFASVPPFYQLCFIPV

Regarding `CN(C)S(=O)(=O)c1ccc(-c2cn3ccccc3n2)cc1`, the AC50 in [1] was 2.05 µM (active).
With `CC(C)CNC(=O)C1Nc2ccccc2C2C=CCC12` (configuration not stated), the 50% effective concentration (EC50) in [2] and in assay [3] was > 300 µM (not active) in each case.
As to `N#C/C(=C\N1CCN(Cc2ccc3c(c2)OCO3)CC1)c1nc2ccccc2s1`, the 50% effective concentration (EC50) in assay [2] and in [3] was > 300 µM (not active) in each case.
As to `Cc1cc(C=C2C(=O)N(C)C(=S)N(C)C2=O)c(C)n1C1CCCC1`, the EC50 is 189 µM (active) in assay [2] and 129 µM (active) in assay [3].
Take `O=C1C=C(c2ccc(Cl)c(C(F)(F)F)c2)C[C@@H](c2ccc(Cl)cc2)C1`: in assay [4], the half-maximal activity concentration (AC50) is 3.41 µM (active). Also, the CC50 in assay [5] was 12.1 µM (active).
`COc1ccc(OC)c(Nc2nc(N(C)c3ccccc3)nc(N)c2[N+](=O)[O-])c1`: the concentration giving a half-maximal response (EC50) in assay [6] was 0.888 µM (active); in [7], > 30 µM (not active). For the same compound, the CC50 in assay [5] was > 50 µM (active).
Consider `COc1ccccc1CNCC(=O)N1CC(=O)Nc2ccccc21`, for which, in assay [8], the half-maximal inhibitory concentration (IC50) is 143 µM (active).
Regarding `COc1cc2c3nnc(-c4ccccc4)c-3cn(Cc3ccc(F)cc3)c2cc1OC`, the EC50 in [2] and in [3] was > 300 µM (not active) throughout.
As for `COc1cc(/C=C/C(=O)OCc2cn3cc(Cl)ccc3n2)ccc1O`, in [8], the IC50 was 45.5 µM (active).
`COc1cc(/C=C/C(=O)OCC(=O)Nc2ccc3c(c2)OCCO3)ccc1O`: the IC50 in assay [8] was 39.8 µM (active).
As for `COC(=O)c1c(NC(=O)C2CC=CCC2C(=O)O)sc(C(N)=O)c1C` (configuration not stated), the AC50 in assay [1] was 3.13 µM (active).
For the compound `CCn1c2ccccc2c2nnc(SCc3ccccc3)nc21`, the CC50 in assay [5] is 34.6 µM (active).
Regarding `O=C(O)c1ccc(NC(=O)c2cn(-c3ccccc3)nc2-c2ccc(Br)cc2)cc1`, the half-maximal cytotoxic concentration (CC50) in assay [5] is 21 µM (active).
For the compound `CCC(Sc1nc(C)cc(C)n1)C(=O)NC1=NN=C(c2ccc(C)cc2)CS1` (configuration not stated), in [9], the concentration at half-maximal activity (AC50) is 4.8 µM (active). In addition, the EC50 in assay [10] was 12.2 µM (active).
As for `CC(=O)Nc1ccc(OC(=O)Cc2ccc(Cl)cc2)cc1`, the IC50 in assay [8] is 23.4 µM (active).
`COc1cc(C2C(C#N)=C(N)OC3=C2C(=O)CC(C)(C)C3)cc2c1OCO2` (configuration not stated): the 50% effective concentration (EC50) in [2] and in [3] was > 300 µM (not active) throughout.
For `Cc1ccc(O)c(CCc2ccc(O)cc2)n1`, the AC50 in assay [1] was 2.64 µM (active).
As to `CCN(CC)S(=O)(=O)c1ccc(NCC2COc3ccccc3O2)c([N+](=O)[O-])c1` (configuration not stated), the CC50 in [5] is 13 µM (active).
Consider `CCOc1cc(/C=C(\C#N)C(=O)NCC2CCCO2)ccc1O` (configuration not stated), for which, in assay [8], the IC50 was 41.5 µM (active).
Regarding `CCOC(=O)Cc1csc(NC(=O)/C=C/c2ccccc2Cl)n1`, the CC50 in assay [5] was 18.9 µM (active).
On to `CCn1c(=O)c(C(=O)CN(C)Cc2cccc(OC)c2OC)c(N)n(Cc2ccccc2)c1=O`, for which the IC50 in [8] was 83.9 µM (active).
For `CC1=C(C#N)C(=O)N(C)C(=O)/C1=C\NNc1ccc(C)c(C)c1`, the half-maximal effective concentration (EC50) in assay [2] is > 300 µM (not active); in [3], 40.6 µM (active).
On to `NNC(=O)c1sc(-c2ccc(Cl)cc2)cc1N`, for which the AC50 in [1] was 2.39 µM (active).
Still for that read-out and setting: with `O=C(CN1CCN(c2ccccc2)CC1)Nc1ccccc1Cl` the figure was 6.68 µM (active).
Still for that read-out and setting: with `COc1cc(NS(=O)(=O)c2ccc(NC(=O)NC3CCCCC3)cc2)nc(OC)n1` the figure was 3.49 µM (active).
With `COc1ccc(NC(S)=NCC2CCN(c3ccc(OC)cc3)C2)cc1` (configuration not stated), the IC50 in assay [8] was 39.4 µM (active).
With `Cc1cccc(NC(=O)CC2Nc3cccc4cccc(c34)NC2=O)c1` (configuration not stated), the concentration at half-maximal activity (AC50) in assay [11] is 12.6 µM (inconclusive). Also, the 50% cytotoxic concentration (CC50) in [5] is > 50 µM (active).
Turning to `Oc1c2c(nc3cc(-c4cccc(Cl)c4)nn13)CCCC2`, the CC50 in assay [5] was 39.3 µM (active).
Consider `Cc1cccc(-n2c(=O)c3ccccc3n3c(S)nnc23)c1C`, for which the IC50 in [8] was 40.7 µM (active).
Consider `CC(=O)c1cccc(Oc2cc(NN3CCCCC3)c([N+](=O)[O-])cc2[N+](=O)[O-])c1`, for which the concentration at half-maximal activity (AC50) in [1] was 0.471 µM (active).
For `N#C/C(=N\Nc1ccc(Cl)cc1)C(=O)c1ccsc1`, the EC50 in assay [2] is 81.6 µM (active); in assay [3] it was 10.8 µM (active).
Consider `COc1ccc(-n2nc3c(=O)[nH][nH]c3cc2=O)cc1`, for which the EC50 in assay [2] was 13.1 µM (active); in assay [3], 3.67 µM (active).
For `Cc1csc(/C(=N/OC(=O)c2ccco2)C(N)=O)n1`, in assay [1], the AC50 is 0.252 µM (active).
Take `COc1cc(/C=N/NC(=O)c2nonc2C)ccc1O`: the IC50 in assay [8] is 28.8 µM (active). Moreover, the 50% effective concentration (EC50) is 4.42 µM (active) in assay [12] and 23.5 µM (active) in [13].
As for `CCSc1ncc(/C=N/Nc2ccc([N+](=O)[O-])cc2)n1C`, in assay [14], the 50% effective concentration (EC50) is 0.793 µM (active).
As for `N#Cc1c(N)nc(SCc2ccccc2)c(C#N)c1-c1ccco1`, the EC50 in [2] and in assay [3] was > 300 µM (not active) in each case.
